# Measured values as given in patent US9695155B2, “Herbicidal substituted pyrimidinyloxy benzene compounds” (E. I. DU PONT DE NEMOURS AND COMPANY, priority 2013, dated 2017).
# Columns and labels:
# [1] = test system: giant foxtail; experiment: Test A preemergence; type: in vivo, Setaria faberii; settings: for Plant response rating, Foxtail, Giant: 0 to 100 scale where 0 is no effect and 100 is complete control; for Foxtail, Giant plant response rating: 500 g ai/ha, 0 to 100 scale, 0 no effect, 100 complete control, approx. 10 days
# Procedure, shortened: (§1)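 Pre- and postemergence greenhouse screen. Soil: loam + sand. Spray carrier: solvent mixture, non-phytotoxic, with surfactant. Post timing at 1–2 leaves, height 2–10 cm. Readout: visual injury on a 0–100 scale roughly 10 days after application, untreated plants as reference.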
# [2] = test system: giant foxtail; experiment: Test A postemergence; type: in vivo, Setaria faberii
# Procedure, shortened: as §1
# [3] = test system: corn; experiment: Test A postemergence; type: in vivo, Zea mays
# Procedure, shortened: as §1
# [4] = test system: rice; experiment: Test B flooded paddy test; type: in vivo, Oryza sativa; settings: Flood, 250 g ai/ha; 0 to 100 scale where 0 is no effect and 100 is complete control
# Procedure, shortened: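 2-leaf stage plants; pots flooded to 3 cm, compound added to paddy water, depth maintained. Greenhouse 13–15 d. Visual rating vs untreated controls, 0 (no effect) to 100 (complete control); dash = no result.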
# [5] = test system: Italian ryegrass; experiment: Test C postemergence; type: in vivo, Lolium multiflorum
# Procedure, shortened: (§2)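 Visual injury score versus untreated controls, 0 = no effect, 100 = complete control, taken 13 to 15 days after treatment in the greenhouse. Pre-emergence pots held loam/sand; post-emergence plants grew in sphagnum peat/vermiculite mix and were sprayed at the 1- to 4-leaf stage.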
# [6] = test system: morningglory; experiment: Test C postemergence; type: in vivo, Ipomoea coccinea
# Procedure, shortened: as §2
# [7] = test system: yellow nutsedge; experiment: Test C postemergence; type: in vivo, Cyperus esculentus
# Procedure, shortened: as §2
# [8] = test system: pigweed; experiment: Test C postemergence; type: in vivo, Amaranthus retroflexus
# Procedure, shortened: as §2
# [9] = test system: kochia; experiment: Test C postemergence; type: in vivo, Kochia scoparia; settings: for Plant response rating, Kochia / Kochia plant response rating: scale 0 to 100 (0 no effect, 100 complete control)
# Procedure, shortened: as §2
# [10] = test system: wild oat; experiment: Test C postemergence; type: in vivo, Avena fatua
# Procedure, shortened: as §2
# [11] = 31 g ai/ha, visual, approximately 10 days
# [12] = 31 g ai/ha, 0 to 100 scale, 0 no effect, 100 complete control
# [13] = 125 g ai/ha, 0 to 100 scale where 0 is no effect and 100 is complete control
# [14] = 16 g ai/ha, postemergence, 0 is no effect, 100 is complete control
# [15] = 125 g ai/ha, postemergence, visual rating, scale 0 to 100 (0 no effect, 100 complete control)
# [16] = Postemergence, 62 g ai/ha, scale 0 to 100 (0 no effect, 100 complete control)
# [17] = 125 g ai/ha, postemergence, visual rating
# [18] = 500 g ai/ha, 0 to 100 scale where 0 is no effect and 100 is complete control
# [19] = Postemergence, 31 g ai/ha, scale 0 to 100 (0 no effect, 100 complete control), 13 to 15 days
# [20] = 16 g ai/ha, postemergence, visual rating, 13 to 15 days
# [21] = Postemergence, 31 g ai/ha, 13 to 15 days
# [22] = 125 g ai/ha, 0 to 100 scale, 0 no effect, 100 complete control
# [23] = 31 g ai/ha, postemergence, visual rating, scale 0 to 100 (0 no effect, 100 complete control), 13 to 15 days
# [24] = Postemergence, 62 g ai/ha, scale 0 to 100 (0 no effect, 100 complete control), 13 to 15 days
structure (smiles),measurement,setting,value
N#Cc1cnn(-c2c(Br)cccc2Oc2ncc(Cl)cn2)c1 [Compound 140],"Plant response rating, Foxtail, Giant",[1]; [11],50
same,"Plant response rating, Foxtail, Giant",[1]; 125 g ai/ha,100
same,"Plant response rating, Foxtail, Giant",[2]; [12],30
same,"Foxtail, Giant plant response rating",[2]; [13],90
same,"Plant response rating, Corn",[3]; [12],20
same,Corn plant response rating,[3]; [13],30
same,"Plant response rating, Rice",[4],0
same,"Plant response rating (0 to 100), Ryegrass, Italian",[5]; [14],0
same,"Plant response rating, Ryegrass, Italian",[5]; [15],0
same,"Plant response rating, Ryegrass, Italian",[5]; [16],0
same,"Plant response rating (0 to 100), Morningglory",[6]; [14],0
same,"Plant response rating, Morningglory",[6]; [15],70
same,"Plant response rating, Morningglory",[6]; [16],75
same,"Plant response rating (0 to 100), Nutsedge, Yellow",[7]; [14],0
same,"Plant response rating, Nutsedge, Yellow",[7]; [15],5
same,"Plant response rating, Nutsedge, Yellow",[7]; [16],5
same,"Plant response rating (0 to 100), Pigweed",[8]; [14],85
same,"Plant response rating, Pigweed",[8]; [15],90
same,"Plant response rating, Pigweed",[8]; [16],90
same,"Plant response rating (0 to 100), Kochia",[9]; [14],70
same,"Plant response rating, Kochia",[9]; [17],90
same,"Plant response rating, Kochia","[9]; Postemergence, 62 g ai/ha",85
same,"Plant response rating (0 to 100), Oat, Wild",[10]; [14],0
same,"Plant response rating, Oat, Wild",[10]; [15],5
same,"Plant response rating, Oat, Wild",[10]; [16],0
Cc1cnc(Oc2cccc(C#N)c2-n2cc(C#N)cn2)nc1 [Compound 90],"Plant response rating, Foxtail, Giant",[1]; 125 g ai/ha,90
same,"Foxtail, Giant plant response rating",[1],100
same,"Plant response rating, Foxtail, Giant",[2]; [13],80
same,"Plant response rating, Foxtail, Giant",[2]; [18],90
same,"Plant response rating, Corn",[3]; [13],0
same,"Plant response rating, Corn",[3]; [18],80
same,"Plant response rating, Rice",[4],0
same,"Plant response rating (0 to 100), Ryegrass, Italian","[5]; 125 g ai/ha, postemergence",0
same,"Plant response rating, Ryegrass, Italian",[5]; [19],5
same,"Plant response rating, Ryegrass, Italian",[5]; [16],5
same,"Plant response rating (0 to 100), Morningglory","[6]; 125 g ai/ha, postemergence",85
same,"Plant response rating, Morningglory",[6]; [19],60
same,"Plant response rating, Morningglory",[6]; [16],75
same,"Plant response rating (0 to 100), Nutsedge, Yellow","[7]; 125 g ai/ha, postemergence",10
same,"Plant response rating, Nutsedge, Yellow",[7]; [19],5
same,"Plant response rating, Nutsedge, Yellow",[7]; [16],10
same,"Plant response rating (0 to 100), Pigweed","[8]; 125 g ai/ha, postemergence",70
same,"Plant response rating, Pigweed",[8]; [19],45
same,"Plant response rating, Pigweed",[8]; [16],45
same,Kochia plant response rating,[9]; [20],45
same,"Plant response rating (0 to 100), Kochia","[9]; 125 g ai/ha, postemergence",90
same,"Plant response rating, Kochia",[9]; [21],70
same,"Plant response rating, Kochia","[9]; Postemergence, 62 g ai/ha",45
same,"Plant response rating (0 to 100), Oat, Wild","[10]; 125 g ai/ha, postemergence",5
same,"Plant response rating, Oat, Wild",[10]; [19],0
same,"Plant response rating, Oat, Wild",[10]; [16],5
FCc1cccc(Oc2ncc(Cl)cn2)c1-n1cc(I)cn1 [Compound 245],"Plant response rating, Foxtail, Giant",[1]; [11],60
same,"Foxtail, Giant plant response rating (0 to 100 scale)",[1]; 125 g ai/ha,100
same,"Plant response rating, Foxtail, Giant",[2]; [12],0
same,"Plant response rating, Foxtail, Giant",[2]; [22],80
same,"Plant response rating, Corn",[3]; [12],20
same,"Plant response rating, Corn",[3]; [22],40
same,"Plant response rating, Rice",[4],0
same,"Plant response rating (0 to 100), Ryegrass, Italian",[5]; [14],0
same,"Ryegrass, Italian plant response rating",[5]; [23],0
same,"Plant response rating, Ryegrass, Italian",[5]; [15],5
same,"Plant response rating, Ryegrass, Italian",[5]; [24],0
same,"Plant response rating (0 to 100), Morningglory",[6]; [14],5
same,Morningglory plant response rating,[6]; [23],30
same,"Plant response rating, Morningglory",[6]; [15],85
same,"Plant response rating, Morningglory",[6]; [24],65
same,"Plant response rating (0 to 100), Nutsedge, Yellow",[7]; [14],5
same,"Nutsedge, Yellow plant response rating",[7]; [23],5
same,"Plant response rating, Nutsedge, Yellow",[7]; [15],10
same,"Plant response rating, Nutsedge, Yellow",[7]; [24],5
same,"Plant response rating (0 to 100), Pigweed",[8]; [14],40
same,Pigweed plant response rating,[8]; [23],55
same,"Plant response rating, Pigweed",[8]; [15],85
same,"Plant response rating, Pigweed",[8]; [24],75
same,"Plant response rating (0 to 100), Kochia",[9]; [14],45
same,Kochia plant response rating,"[9]; 31 g ai/ha, postemergence, visual rating, 13 to 15 days",75
same,"Plant response rating, Kochia",[9]; [17],98
same,"Plant response rating, Kochia","[9]; Postemergence, 62 g ai/ha, 13 to 15 days",90
same,"Plant response rating (0 to 100), Oat, Wild",[10]; [14],0
same,"Oat, Wild plant response rating",[10]; [23],0
same,"Plant response rating, Oat, Wild",[10]; [15],5
same,"Plant response rating, Oat, Wild",[10]; [24],5
CC(C)c1cnn(-c2c(C#N)cccc2Oc2ncc(Cl)cn2)c1 [Compound 85],"Plant response rating, Foxtail, Giant",[1]; 125 g ai/ha,100
same,"Foxtail, Giant plant response rating",[1],100
same,"Plant response rating, Foxtail, Giant",[2]; [13],70
same,"Plant response rating, Foxtail, Giant",[2]; [18],90
same,"Plant response rating, Corn",[3]; [13],30
same,"Plant response rating, Corn","[3]; 500 g ai/ha, 0 to 100 scale, 0 no effect, 100 complete control",70
same,"Plant response rating, Rice",[4],10
same,"Plant response rating (0 to 100), Ryegrass, Italian","[5]; 125 g ai/ha, postemergence",5
same,"Plant response rating, Ryegrass, Italian",[5]; [19],0
same,"Plant response rating, Ryegrass, Italian",[5]; [16],0
same,"Plant response rating (0 to 100), Morningglory","[6]; 125 g ai/ha, postemergence",40
same,"Plant response rating, Morningglory",[6]; [19],60
same,"Plant response rating, Morningglory",[6]; [16],25
same,"Plant response rating (0 to 100), Nutsedge, Yellow","[7]; 125 g ai/ha, postemergence",10
same,"Plant response rating, Nutsedge, Yellow",[7]; [19],5
same,"Plant response rating, Nutsedge, Yellow",[7]; [16],5
same,"Plant response rating (0 to 100), Pigweed","[8]; 125 g ai/ha, postemergence",70
same,"Plant response rating, Pigweed",[8]; [19],55
same,"Plant response rating, Pigweed",[8]; [16],70
same,Kochia plant response rating,[9]; [20],50
same,"Plant response rating (0 to 100), Kochia","[9]; 125 g ai/ha, postemergence",90
same,"Plant response rating, Kochia",[9]; [21],50
same,"Plant response rating, Kochia","[9]; Postemergence, 62 g ai/ha",80
same,"Plant response rating (0 to 100), Oat, Wild","[10]; 125 g ai/ha, postemergence",5
same,"Plant response rating, Oat, Wild",[10]; [19],0
same,"Plant response rating, Oat, Wild",[10]; [16],5
